Earlier results as cited in US20260008814A1, “DEVELOPMENT OF PEPTIDES WITH ANTI-CANCER AND ANTIMICROBIAL PROPERTIES” (YILDIZ TEKNIK ÜNIVERSITESI DÖNER SERMAYE ISLETME MÜD, priority 2023, published 2026).

Tested on: F. nucleatum attachment and invasion of HCT116

ASANWTIQYND
inhibition of F. nucleatum attachment and invasion: inhibitory peptide
